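Dose response: 5 concentrations. Exposure: 48 h. Format: 96-well plates. Endpoint: linear interpolation; highest concentration if not reached. TGI is the concentration that stops growth completely.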 Where a SMILES comes first, the peptide text is derived from it. The star is where a group is joined. Boc = CC(C)(C)OC(=O)*; Bz = O=C(c1ccccc1)* Some results are limits rather than exact numbers.

Some test systems named below: SK-OV-3 ovarian; NCI/ADR-RES ovarian; 786-0 renal; MCF7 breast; UO-31 renal; HCC-2998 colon; DU-145 prostate; TK-10 renal; SN12C renal; M14 melanoma; HCT-116 colon.
What all share (assay): inhibition of tumour cell growth, NCI panel, 48 h

Turning to `CC(NC(=O)C(Cc1ccc(OC(=O)c2ccccc2)cc1)NC(=O)OC(C)(C)C)C(=O)NC(Cc1ccccc1)C(=O)NCC(N)=O` (centres undefined) (Boc-Y(Bz)AFG-NH2; configuration not given here), the TGI with SK-OV-3 ovarian is 39.4 µM; with NCI/ADR-RES ovarian, above 100 µM; in the experiment on 786-0 renal it was 43.5 µM; in the experiment on MCF7 breast it was 40.8 µM; with UO-31 renal, 35.2 µM; with HCC-2998 colon, 38.5 µM. The TGI in the experiment with DU-145 prostate is 42.3 µM; with TK-10 renal, 41.4 µM; in the experiment with SN12C renal it was 42 µM; in the experiment on M14 melanoma, 34 µM; in the experiment on HCT-116 colon, 91.6 µM.
Regarding `CC(=O)OC1=c2ccccc2=C(O)C2C1C=NN2C(C)=O` (centres undefined), the TGI in the experiment with SK-OV-3 ovarian, in the experiment on NCI/ADR-RES ovarian, in the experiment on 786-0 renal, in the experiment with MCF7 breast, in the experiment on UO-31 renal and in the experiment on HCC-2998 colon was above 100 µM in each case. For the same molecule, the TGI with DU-145 prostate, with TK-10 renal, in the experiment with SN12C renal, in the experiment with M14 melanoma and in the experiment with HCT-116 colon was above 100 µM throughout.
Regarding `C=CCN1CCC(OC(=O)C(O)(C#CC)C2CCCC2)CC1` (centres undefined), the TGI with SK-OV-3 ovarian, in the experiment on NCI/ADR-RES ovarian, in the experiment with 786-0 renal, in the experiment with MCF7 breast, in the experiment with UO-31 renal and with HCC-2998 colon was above 100 µM throughout. In addition, the TGI in the experiment on DU-145 prostate, with TK-10 renal, in the experiment with SN12C renal, in the experiment on M14 melanoma and in the experiment on HCT-116 colon was above 100 µM throughout.
Regarding `C/C=C/[C@H]1O[C@@](O)([C@@H](C)[C@H](O)[C@H](C)[C@H]2OC(=O)/C(OC)=C/C(C)=C/[C@@H](C)[C@@H](O)[C@@H](CC)[C@@H](O)[C@H](C)C/C(C)=C/C=C/[C@@H]2OC)C[C@H](OC2CC(O)C(O)C(C)O2)[C@@H]1C` (some centres undefined), the TGI with SK-OV-3 ovarian amounted to 16.9 µM; in the experiment with NCI/ADR-RES ovarian, 17.8 µM; with 786-0 renal, 2.92 µM; with MCF7 breast, 8.58 µM; with UO-31 renal, 0.29 µM; in the experiment with HCC-2998 colon it was 11.8 µM. The TGI was 15.1 µM in the experiment on DU-145 prostate; 18.9 µM in the experiment on TK-10 renal; 18.1 µM in the experiment on SN12C renal; below 0.0075 µM in the experiment on M14 melanoma; 4.15 µM in the experiment on HCT-116 colon.
Turning to `C=C(C)C(=O)O[C@H]1C/C(CO)=C/CCC(=C)C(OC(C)=O)[C@H]2OC(=O)C(=C)[C@H]12` (some centres undefined), the TGI in the experiment on SK-OV-3 ovarian is above 100 µM; with NCI/ADR-RES ovarian, 61.2 µM; with 786-0 renal, 12.8 µM; in the experiment on MCF7 breast, 22.3 µM; with UO-31 renal, 17.7 µM; in the experiment with HCC-2998 colon, 32 µM. Moreover, the TGI with DU-145 prostate was determined as 37.4 µM; in the experiment with SN12C renal it was 30.8 µM; in the experiment on M14 melanoma, 12.5 µM; in the experiment with HCT-116 colon, 13.7 µM.
Turning to `CC[C@@]1(N(C)C)C(=O)OCc2c1cc1n(c2=O)Cc2cc3ccccc3nc2-1`, the TGI in the experiment with SK-OV-3 ovarian is 51.5 µM; in the experiment on NCI/ADR-RES ovarian, 51.9 µM; in the experiment on 786-0 renal, 73.7 µM; with MCF7 breast, above 100 µM; in the experiment with UO-31 renal it was 77 µM; with HCC-2998 colon it was above 100 µM. Also, the TGI in the experiment on DU-145 prostate is 98.1 µM; with TK-10 renal it was above 100 µM; with M14 melanoma it was above 100 µM; in the experiment with HCT-116 colon, above 100 µM.
For `O=C(OCc1ccccc1CN1CCOCC1)c1cccc(Br)c1`, the TGI in the experiment with SK-OV-3 ovarian is above 100 µM; in the experiment on NCI/ADR-RES ovarian it was 79.8 µM; in the experiment on 786-0 renal, above 100 µM; with MCF7 breast, above 100 µM; in the experiment with UO-31 renal, above 100 µM; with HCC-2998 colon, above 100 µM. The TGI in the experiment with DU-145 prostate, in the experiment with SN12C renal, with M14 melanoma and with HCT-116 colon was above 100 µM in each case.
For the molecule `O=c1c2cc(-c3ccccc3)sc2nc2n1N=C(c1ccccc1)CS2`, the TGI is 26.3 µM in the experiment with SK-OV-3 ovarian; 57.5 µM with NCI/ADR-RES ovarian; 38 µM with 786-0 renal; 96.2 µM in the experiment with MCF7 breast; above 100 µM in the experiment on UO-31 renal; above 100 µM with HCC-2998 colon. The TGI in the experiment on DU-145 prostate, in the experiment on TK-10 renal, in the experiment with SN12C renal and in the experiment with HCT-116 colon was above 100 µM each time.
As for `COc1cc2c[n+](C)c3c4cc(OC)c(OC)cc4c(OC)cc3c2cc1OC`, the TGI in the experiment with SK-OV-3 ovarian is above 100 µM; in the experiment on NCI/ADR-RES ovarian, above 100 µM; in the experiment with 786-0 renal, above 74.6 µM; in the experiment on MCF7 breast, above 100 µM; in the experiment with UO-31 renal, above 100 µM; with HCC-2998 colon, above 52.1 µM. For the same molecule, the TGI in the experiment with DU-145 prostate was above 65.3 µM; in the experiment with TK-10 renal, above 100 µM; in the experiment with M14 melanoma it was above 100 µM; with HCT-116 colon, above 43.6 µM.
For the molecule `Cc1ccc(S(=O)(=O)N2CCCN(S(=O)(=O)c3ccc(C)cc3)CCN(S(=O)(=O)c3ccc(C)cc3)CCCSCC2)cc1`, the TGI in the experiment with SK-OV-3 ovarian, in the experiment with NCI/ADR-RES ovarian, in the experiment with 786-0 renal, in the experiment with MCF7 breast, in the experiment with UO-31 renal and in the experiment with HCC-2998 colon was above 100 µM each time. Besides, the TGI in the experiment with DU-145 prostate, with SN12C renal, with M14 melanoma and in the experiment with HCT-116 colon was above 100 µM throughout.
For `OCC1OC(n2nc(-c3ccccc3)nc2-c2cnccn2)C(O)C(O)C1O` (centres undefined), the TGI in the experiment with SK-OV-3 ovarian, in the experiment on NCI/ADR-RES ovarian, with 786-0 renal, in the experiment with MCF7 breast, in the experiment with UO-31 renal and with HCC-2998 colon was above 100 µM each time. Moreover, the TGI in the experiment on DU-145 prostate, in the experiment on SN12C renal, with M14 melanoma and in the experiment on HCT-116 colon was above 100 µM each time.
As for `CCOC(=O)C1(C(N)=O)C(=O)c2ccncc2C1=O` (centres undefined), the TGI with SK-OV-3 ovarian, in the experiment with NCI/ADR-RES ovarian, with 786-0 renal, with MCF7 breast, in the experiment with UO-31 renal and in the experiment with HCC-2998 colon was above 100 µM in each case. Further, the TGI in the experiment with DU-145 prostate, with SN12C renal, in the experiment with M14 melanoma and in the experiment on HCT-116 colon was above 100 µM throughout.

(Values after PubChem BioAssay (NCI).)
